Several values for one entry are separate records, joined by “and”; a condition that tells them apart may be missing. Equal entries are not always repeated.
Key:
Assay in all cases: Post-emergence application in field trials, herbicidal activity (damage scale 0 to 100%)
Format in all cases: in vivo
[1] = system: Echinochloa crus-galli (ECHCG)
Method: (§1) In the examples below, using the method of S. R. Colby (1967) “Calculating synergistic and antagonistic responses of herbicide combinations”, Weeds 15, p. 22ff., the value E, which is expected if the activity of the individual active compounds is only additive, was calculated:
(§2) [formula] • wherein • X=percent activity using active herbicide A at an application rate a; • Y=percent activity using active herbicide B (e.g. pyroxasulfone) at an application rate b; • E=expected activity (in %) by A+B at application rates a+b.
(§3) If the value found experimentally is higher than the value E calculated according to Colby, a synergistic effect is present.
(§4) On field test sites, natural weed infestation or seeded weeds were treated post-emergence of the weeds.
(§5) In the field trials, the weeds were treated as indicated below.
(§6) In the following experiments, the herbicidal activity for the individual herbicidal compositions (solo and mixture applications) was assessed at the indicated days after treatment (DAT). The assessments for the damage on undesired weeds caused by the composition was carried out using a scale from 0 to 100%, compared to the untreated control plants. Here, 0 means no damage and 100 means complete destruction of the plants.
(§7) Herbicide A-1 (50 g/l) and pyroxasulfone (85% WG) were, together with addition of 0.5% MSO (methylated seed oil) as adjuvant, formulated in water as distribution medium (water volume 200 l/ha) and sprayed with commercial flat fan nozzles.

[2] = system: Digitaria horizontalis (DIGHO); conditions: growth stage 25, height 5-10 cm, 21 DAT, Table 2.6
Method: as §1, §2, §3, §4, §5, §6, §7

[3] = system: Ipomoea triloba (IPOTR); conditions: height 20-25 cm, 21 DAT, Table 2.2
Method: as §1, §2, §3, §4, §5, §6, §7

[4] = system: Panicum maximum (PANMA); conditions: height 20-25 cm, 21 DAT, Table 2.3
Method: as §1, §2, §3, §4, §5, §6, §7

[5] = system: Commelina benghalensis (COMBE); conditions: 21 DAT
Method: as §1, §2, §3, §4, §5, §6, §7

[6] = system: Portulaca oleracea (POROL); conditions: growth stage 14-16, height 5-10 cm, 20 DAT, Table 2.1
Method: as §1, §2, §3, §4, §5, §6, §7

[7] = system: Glycine max (GLXMA)
How it was run: (§8)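 Field sites with natural or seeded weeds were sprayed post-emergence via flat fan nozzles in 200 l/ha water plus 0.25 v/v % MSO adjuvant, solo or mixed with pyroxasulfone and other partners. Damage was scored 0–100% versus untreated plants at indicated DAT. Colby expected values were used to judge synergy.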

[8] = system: Senecio vulgaris (SENVU); conditions: growth stage 61-62, height 25-30 cm
How it was run: as §8

[9] = system: Amaranthus palmeri (AMAPA); conditions: height 30 cm, 21 DAT, Table 1.1
Method: as §1, §2, §3, §4, §5
In the following experiments, the herbicidal activity for the individual herbicidal compositions (solo and mixture applications) was assessed at the indicated days after treatment (DAT). The assessments for the damage on undesired weeds caused by the composition was carried out using a scale from 0 to 100%, compared to the untreated control plants. Here, 0 means no damage and 100 means complete destruction of the plants. […]

[10] = system: Echinochloa colonum (ECHCO); conditions: height 20-25 cm, 25 DAT, Table 3.2
Method: as §1, §2, §3, §4, §5, §6
(§9) Herbicide A-1 (300 g/l) and pyroxasulfone (85% WG) were, together with addition of 0.25 l/ha Dash® MSO Max as adjuvant, formulated in water as distribution medium (water volume 200 l/ha) and sprayed with commercial flat fan nozzles.

[11] = system: Amaranthus cruentus (AMACR); conditions: height 20-25 cm
Method: as §1, §2, §3, §4, §5, §6, §9

[12] = system: Amaranthus hybridus (AMACH); conditions: height 20-25 cm, 14 DAT, Table 3.1
Method: as §1, §2, §3, §4, §5, §6, §9

[13] = system: Sorghum vulgare (SORVU); conditions: height 20-25 cm, 14 DAT, Table 3.1
Method: as §1, §2, §3, §4, §5, §6, §9

[14] = 7 DAT, stage 23-30, height 15-20 cm, g ai/ha A-1 12.5, B 70, C-12 252
[15] = 21 DAT, stage 23-30, height 15-20 cm, g ai/ha A-1 12.5, B 70, C-12 252
[16] = 28 DAT, stage 23-30, height 15-20 cm, g ai/ha A-1 12.5, B 70, C-12 252
[17] = Table 8.2, 21 DAT, stage 23-30, height 15-20 cm, g ai/ha A-1 18, B 70, C-12 1066
[18] = Table 8.2, 21 DAT, stage 23-30, height 15-20 cm, g ai/ha A-1 18, B 90, C-12 1066
[19] = Table 8.3, 28 DAT, stage 23-30, height 15-20 cm, g ai/ha A-1 18, B 70, C-12 1066
[20] = Table 8.3, 28 DAT, stage 23-30, height 15-20 cm, g ai/ha A-1 18, B 90, C-12 1066
[21] = 7 DAT, stage 12-13, height 7-11 cm, g ai/ha A-1 12.5, B 70, C-4 12.5
[22] = 42 DAT, stage 12-13, height 7-11 cm, g ai/ha A-1 18, B 70
[23] = 42 DAT, stage 12-13, height 7-11 cm, g ai/ha A-1 18, B 90

Compound: CCOC(=O)COc1ccccc1Oc1nc(-n2c(=O)cc(C(F)(F)F)n(C)c2=O)c(F)cc1Cl [A-1, ethyl 2-[2-[[3-chloro-5-fluoro-6-[3-methyl-2,6-dioxo-4-(trifluoromethyl)pyrimidin-1-yl]-2-pyridyl]oxy]phenoxy]acetate]
- % Herbicidal activity [1, 14]: 30%
- % Herbicidal activity [1, 15]: 30%
- % Herbicidal activity [1, 16]: 30%
- % Herbicidal activity ([1]; ECHCG, height 20-25 cm, A-1 25 g ai/ha, 21 DAT, Table 2.3): 60%
- % Herbicidal activity [1, 17]: 30%
- % Herbicidal activity [1, 18]: 30%
- % Herbicidal activity [1, 19]: 30%
- % Herbicidal activity [1, 20]: 30%
- % Herbicidal activity ([2]; A-1 50 g ai/ha): 92%
- % Herbicidal activity ([3]; A-1 25 g ai/ha): 88%
- % Herbicidal activity ([4]; A-1 25 g ai/ha): 75%
- % Herbicidal activity ([5]; growth stage 11-14, height 2-10 cm, A-1 50 g ai/ha, Table 2.6): 94%
- % Herbicidal activity ([5]; height 20-25 cm, A-1 25 g ai/ha, Table 2.2): 42%
- % Herbicidal activity ([6]; A-1 50 g ai/ha): 60%
- % Herbicidal activity [7, 21]: 90%
- % Herbicidal activity [7, 22]: 95%
- % Herbicidal activity [7, 23]: 95%
- % Herbicidal activity ([7]; GLXMA, growth stage 12-13, height 7-11 cm, A-1 12.5 g ai/ha, 7 DAT, Table 4.1): 90%
- % Herbicidal activity ([7]; GLXMA, growth stage 12-13, height 7-11 cm, A-1 12.5 g ai/ha, 21 DAT, Table 4.3): 95%
- % Herbicidal activity ([7]; GLXMA, growth stage 12-13, height 7-11 cm, A-1 18 g ai/ha, 7 DAT, Table 4.1): 90%
- % Herbicidal activity ([7]; GLXMA, growth stage 12-13, height 7-11 cm, A-1 18 g ai/ha, 21 DAT, Table 4.3): 92%
- % Herbicidal activity ([8]; A-1 12.5 g ai/ha, 7 DAT, Table 4.2): 90%
- % Herbicidal activity ([8]; A-1 12.5 g ai/ha, 21 DAT, Table 4.4): 40%
- % Herbicidal activity ([8]; A-1 18 g ai/ha, 21 DAT, Table 4.4): 40%
- % Herbicidal activity ([9]; A-1 25 g ai/ha): 85%
- % Herbicidal activity ([10]; A-1 50 g ai/ha): 55%
- % Herbicidal activity ([11]; A-1 25 g ai/ha, 14 DAT, Table 3.1): 88%
- % Herbicidal activity ([11]; A-1 25 g ai/ha, 25 DAT, Table 3.2): 89%
- % Herbicidal activity ([11]; A-1 50 g ai/ha, 14 DAT, Table 3.1): 91%
- % Herbicidal activity ([11]; A-1 50 g ai/ha, 25 DAT, Table 3.2): 91%
- % Herbicidal activity ([12]; A-1 50 g ai/ha): 87%
- % Herbicidal activity ([13]; A-1 50 g ai/ha): 88%

Compound: Cn1nc(C(F)(F)F)c(CS(=O)(=O)C2=NOC(C)(C)C2)c1OC(F)F [B, pyroxasulfone]
- % Herbicidal activity [1, 14]: 10%
- % Herbicidal activity [1, 15]: 10%
- % Herbicidal activity [1, 16]: 10%
- % Herbicidal activity ([1]; ECHCG, height 20-25 cm, B 120 g ai/ha, 21 DAT, Table 2.3): 0%
- % Herbicidal activity [1, 17]: 0%
- % Herbicidal activity [1, 18]: 0%
- % Herbicidal activity [1, 19]: 0%
- % Herbicidal activity [1, 20]: 0%
- % Herbicidal activity ([2]; B 120 g ai/ha): 5%
- % Herbicidal activity ([3]; B 120 g ai/ha): 0%
- % Herbicidal activity ([4]; B 120 g ai/ha): 0%
- % Herbicidal activity ([5]; growth stage 11-14, height 2-10 cm, B 120 g ai/ha, Table 2.6): 10%
- % Herbicidal activity ([5]; height 20-25 cm, B 120 g ai/ha, Table 2.2): 0%
- % Herbicidal activity ([6]; B 120 g ai/ha): 0%
- % Herbicidal activity [7, 21]: 0%
- % Herbicidal activity [7, 22]: 0%
- % Herbicidal activity [7, 23]: 0%
- % Herbicidal activity ([7]; GLXMA, growth stage 12-13, height 7-11 cm, B 70 g ai/ha, 7 DAT, Table 4.1): 0%
- % Herbicidal activity ([7]; GLXMA, growth stage 12-13, height 7-11 cm, B 70 g ai/ha, 21 DAT, Table 4.3): 0%
- % Herbicidal activity ([7]; GLXMA, growth stage 12-13, height 7-11 cm, B 90 g ai/ha, 7 DAT, Table 4.1): 0%
- % Herbicidal activity ([7]; GLXMA, growth stage 12-13, height 7-11 cm, B 90 g ai/ha, 21 DAT, Table 4.3): 0%
- % Herbicidal activity ([8]; B 70 g ai/ha, 7 DAT, Table 4.2): 30%
- % Herbicidal activity ([8]; B 70 g ai/ha, 21 DAT, Table 4.4): 20% and 10%
- % Herbicidal activity ([8]; B 90 g ai/ha, 21 DAT, Table 4.4): 20%
- % Herbicidal activity ([9]; B 120 g ai/ha): 2%
- % Herbicidal activity ([10]; B 120 g ai/ha): 12%
- % Herbicidal activity ([11]; B 120 g ai/ha, 14 DAT, Table 3.1): 13%
- % Herbicidal activity ([11]; B 120 g ai/ha, 25 DAT, Table 3.2): 16%
- % Herbicidal activity ([12]; B 120 g ai/ha): 16%
- % Herbicidal activity ([13]; B 120 g ai/ha): 5%

Compound: CP(=O)(O)CC[C@H](N)C(=O)O.N [C-12, glufosinate-P-ammonium]
- % Herbicidal activity [1, 14]: 70%
- % Herbicidal activity [1, 15]: 60%
- % Herbicidal activity [1, 16]: 60%
- % Herbicidal activity [1, 17]: 10%
- % Herbicidal activity [1, 18]: 10%
- % Herbicidal activity [1, 19]: 10%
- % Herbicidal activity [1, 20]: 10%
